Laboratory results as given in patent US20150196500A1, “Treatment of Mitochondria-Related Diseases and Improvement of Age-Related Metabolic Deficits” (PHILERA NEW ZEALAND LIMITED, priority 2005, published 2015).
“Also recorded” adds a separate entry of the source. Like-named read-outs stand apart in the source and are kept apart here.

Legend:
[1] = test system: mitochondria isolated from hearts of obese ZDF rats and lean littermates; assay type: cell-based, rat
[2] = test system: citrate synthase in mitochondria isolated from lean (non-diabetic) ZDF rats; assay: Residual citrate synthase activity in mitochondrial pellets (marker of inner membrane integrity); assay type: cell-based, rat
Method: An enzyme assay was then used to evaluate the mitochondrial pellets to determine the contents of the matrix protein citrate synthase in order to evaluate the integrity of the mitochondria after the respective incubations. Citrate synthase activity was determined according to the methods decscribed in Newsholme and Crabtree, J. Exp. Zoo. 239(2): 159-67 (1986). In brief, frozen mitochondrial pellets were resuspended in a reaction mixture containing 50 mM Tris-HCl (pH8.0), 0.1 mM acetyl coenzyme A and 0.2 mM 5,5′-dithiobis-(2-nitrobenzoic acid) (DTNB). Reactants were incubated for five minutes prior to measurement and the assay started by the addition of 5 mM oxaloacetate. Absorbance of DTNB was then followed at 412 nm and units were calculated relative to soluble protein using the biccichonic acid method (BCA, Pierce) with bovine serum albumin as standard.

[3] = test system: cytochrome c release from mitochondria isolated from lean (non-diabetic) ZDF rats; assay: Cytochrome c release from isolated mitochondria, Western blot; assay type: cell-based, rat; conditions: for cytochrome c release into supernatant: 5 mM alone, 30 min incubation
[4] = test system: electron transport chain complexes I to V of left ventricle mitochondria; conditions: rat, in vivo
Method: Male Wistar rats (starting body weight from about 200 to about 250 g) were maintained on Teklad TB 2108 (Harlan UK) rat chow and tap water ab libitum. At eight weeks the rats were randomized into two groups: control and diabetic (STZ). Rats were made diabetic by injection with 60 mg/kg STZ and the control rats were given a corresponding amount of 0.9% sodium chloride.
The control groups received Milli-Q water ab libitum during the corresponding period. At the end of the eleven week treatment period, rats were anaesthetized with isoflurane, the abdominal cavity was opened and a catheter inserted into the vena cava. Approximately 1 mL of blood was removed for future analysis and 10000 U/Kg heparin infused. […]
Fiber respiration was then measured in a respirometer at 30° C. at high resolution using Clark-type electrodes and integrated software that was used for data acquisition and analysis (DatLab 4, Oroboros, Oxygraph; Innsbruck, Austria). […] Respiratory rates (oxygen fluxes) were expressed as pmol O2. […]
Respiratory flux rates through complex I (GM2 and GM3), complexes I and II (GMS3) and II (S3) were determined to measure the intactness of the individual complexes (GM3 and S3), and to estimate maximal flux rates through the electron transport chain.

[5] = in the presence of 5 mM spermine

SMILES | change in mitochondrial volume ([1]; 0-5 mM, no CaCl2, 30 minutes, diabetic or control mitochondria) | effect on swelling at concentrations above 0.625 mM ([1]; 150 μM CaCl2, mitochondria from obese and lean rats) | residual citrate synthase activity ([2]; 5 mM alone, after 30 min) | citrate synthase activity in spermine treated mitochondria [2, 5] | relative potency in improving residual citrate synthase activity [2, 5] | cytochrome c release into supernatant [3] | cytochrome c release on co-incubation with 5 mM spermine ([3]; 5 mM spermine plus test polyamine) | concentration dependence of diminished cytochrome c release ([3]; […] vs 5 mM, with 5 mM spermine) | change in mitochondrial volume [1] | effect on swelling at concentrations above 0.625 mM [1] | relative inhibition of Ca2+ induced swelling among the three polyamines [1] | residual citrate synthase activity ([2]; 5 mM alone) | residual citrate synthase activity ([2]; lower concentrations than 5 mM) | incubation time to maximum release of cytochrome c ([3]; data not shown) | cytochrome C oxidase flux (TMPD plus ascorbate) [4] | respiration flux rates of control treated mitochondria [4]
NCCCCNCCCN [spermidine] | no detectable change in mitochondrial volume | continued to have a protective effect; also recorded: continue to protect mitochondria from swelling | increased amounts of residual citrate synthase activity compared to control samples | improved citrate synthase activity, although not as effectively; also recorded: capable of improving residual citrate synthase activity | markedly less potent than triethylenetetramine dihydrochloride | caused cytochrome c release at 5 mM, albeit less than in the case of spermine | reduced, though to a lesser degree; also recorded: diminished cytochrome c release | less potent than when 5 mM was used |  |  |  |  |  |  |  | 
NCCCNCCCCNCCCN [spermine] |  |  |  |  |  | release of large amounts of cytochrome c |  |  | led to swelling of mitochondria | induced swelling; also recorded: appears to induce swelling | greatest inhibition of swelling | rapid loss of citrate synthase activity | less severe impact on the residual citrate synthase activity | 30 min |  | 
NCCNCCNCCN.O=C(O)CCC(=O)O.O=C(O)CCC(=O)O [triethylenetetramine disuccinate] |  |  |  |  |  |  |  |  |  |  |  |  |  |  | significant improvement in cytochrome C oxidase | No significant effect
